Test results reported in patent publication EP0549857A1, “Antibacterial quinolone carboxylic acid derivatives” (KOREA RESEARCH INSTITUTE OF CHEMICAL TECHNOLOGY, priority 1991, dated 1993).
≈ marks a conversion by molar mass, not a printed value. Read-outs that look alike come from different tables or passages of the source.

What was measured:
[1] = tested on: Streptococcus faecium MD 8b; assay: In vitro anti-bacterial activity test (MIC, two-fold agar dilution); assay type: cell-based; conditions: Enterococcus faecium, MD8B; Streptococcus faecium MD 8b; Mueller-Hinton agar, 10⁷ CFU/mℓ, 37°C, 18 hours; read-out: MIC
Escherichia coli 1507E = assay: as above; assay type: cell-based; conditions: Mueller-Hinton agar, 10⁷ CFU/mℓ, 37°C, 18 hours, read-out: MIC
[2] = tested on: Pseudomonas aeruginosa 1592E; assay: as above; assay type: cell-based; conditions: Mueller-Hinton agar, 10⁷ CFU/mℓ, 37°C, 18 hours, read-out: MIC
[3] = tested on: Pseudomonas aeruginosa 9027; assay: as above; assay type: cell-based; conditions: Pseudomonas aeruginosa 9027; Mueller-Hinton agar, 10⁷ CFU/mℓ, 37°C, 18 hours; read-out: MIC
[4] = tested on: Streptococcus pyogenes 77A; assay: as above; assay type: cell-based; conditions: Streptococcus pyogenes 77A; Mueller-Hinton agar, 10⁷ CFU/mℓ, 37°C, 18 hours; read-out: MIC
[5] = tested on: Staphylococcus aureus SG 511; assay: as above; assay type: cell-based; conditions: SG511; Staphylococcus aureus SG 511; Mueller-Hinton agar, 10⁷ CFU/mℓ, 37°C, 18 hours; read-out: MIC
Enterobacter cloacae P99 = assay: as above; assay type: cell-based; conditions: Mueller-Hinton agar, 10⁷ CFU/mℓ, 37°C, 18 hours, read-out: MIC
[6] = tested on: Staphylococcus aureus 503; assay: as above; assay type: cell-based; conditions: Staphylococcus aureus 503; Mueller-Hinton agar, 10⁷ CFU/mℓ, 37°C, 18 hours; read-out: MIC
Escherichia coli DC 0 = assay: as above; assay type: cell-based; conditions: DC0, Mueller-Hinton agar, 10⁷ CFU/mℓ, 37°C, 18 hours, read-out: MIC
[7] = tested on: Streptococcus pyogenes 308A; assay: as above; assay type: cell-based; conditions: Mueller-Hinton agar, 10⁷ CFU/mℓ, 37°C, 18 hours, read-out: MIC
[8] = tested on: Klebsiella aerogenes 1522E; assay: as above; assay type: cell-based; conditions: Mueller-Hinton agar, 10⁷ CFU/mℓ, 37°C, 18 hours, read-out: MIC
[9] = tested on: Pseudomonas aeruginosa 1771M; assay: as above; assay type: cell-based; conditions: 18 h
[10] = tested on: Klebsiella aerogenes 1082E; assay: as above; assay type: cell-based; conditions: Mueller-Hinton agar, 10⁷ CFU/mℓ, 37°C, 18 hours, read-out: MIC
Escherichia coli DC 2 = assay: as above; assay type: cell-based; conditions: DC2, Mueller-Hinton agar, 10⁷ CFU/mℓ, 37°C, 18 hours, read-out: MIC
Escherichia coli OTEM = assay: as above; assay type: cell-based; conditions: Mueller-Hinton agar, 10⁷ CFU/mℓ, 37°C, 18 hours, read-out: MIC
Escherichia coli O 55 = assay: as above; assay type: cell-based; conditions: O55, Mueller-Hinton agar, 10⁷ CFU/mℓ, 37°C, 18 hours, read-out: MIC
[11] = tested on: Pseudomonas aeruginosa 1771; assay: as above; assay type: cell-based; conditions: Pseudomonas aeruginosa 1771; Mueller-Hinton agar, 10⁷ CFU/mℓ, 37°C, 18 hours; read-out: MIC
[12] = tested on: Staphylococcus aureus 285; assay: as above; assay type: cell-based; conditions: Staphylococcus aureus 285; Mueller-Hinton agar, 10⁷ CFU/mℓ, 37°C, 18 hours; read-out: MIC
Salmonella typhimurium = assay: as above; assay type: cell-based; conditions: Salmonella enterica, Mueller-Hinton agar, 10⁷ CFU/mℓ, 37°C, 18 hours, read-out: MIC
[13] = tested on: Enterobacter cloacae 1321E; assay: as above; assay type: cell-based; conditions: Mueller-Hinton agar, 10⁷ CFU/mℓ, 37°C, 18 hours, read-out: MIC
P. mirabilis = assay: Preventive effect on the systemic infection; assay type: in vivo; conditions: Proteus mirabilis, in Mus musculus, P. mirabilis intraperitoneal infection, NMRI mice, survival on day 7, probit analysis, read-out: ED₅₀
Method: (§1) 10 fold of the pathogen which leads to 100% lethality were injected intraperitoneally to male and female NMRI mice weighing 18 to 20g. Immediately and after 4 hours, the dose of test compounds which was determined by two-fold serial dilution method was administered orally or subcutaneously; and on day 7, the effectiveness was evaluated in terms of ED₅₀ calculated from the number of survived mice by the probit analysis.

S. aureus 17740 = assay: Preventive effect on the systemic infection; assay type: in vivo; conditions: Staphylococcus aureus, 17740, in Mus musculus, S. aureus 17740 intraperitoneal infection, NMRI mice, survival on day 7, probit analysis, read-out: ED₅₀
Method: as §1

[14] = Oral Administration immediately and after 4 hours
[15] = Subcutaneous Injection immediately and after 4 hours

Row | Structure (SMILES) | MIC [1] | MIC (Escherichia coli 1507E) | MIC [2] | MIC [3] | MIC [4] | MIC [5] | MIC (Enterobacter cloacae P99) | MIC [6] | MIC (Escherichia coli DC 0) | MIC [7] | MIC [8] | MIC [9] | MIC [10] | MIC (Escherichia coli DC 2) | MIC (Escherichia coli OTEM) | MIC (Escherichia coli O 55) | MIC [11] | MIC [12] | MIC (Salmonella typhimurium) | MIC [13] | further results
1 | NC1CCCC2=C1CN(c1c(F)cc3c(=O)c(C(=O)O)cn(C4CC4)c3c1F)C2 (stereo not shown) [Example 9, 7-[6-amino-3-azabicyclo[4,3,0]non-1(5)ene-3-yl]-1-cyclopropyl-6,8-difluoro-1,4-dihydro-4-oxoquinoline-3-carboxylic acid] | 0.098 µg/mL (≈ 0.244 µM) | 0.098 µg/mL (≈ 0.244 µM) | 3.12 µg/mL (≈ 7.78 µM) | 3.12 µg/mL (≈ 7.78 µM) | 0.098 µg/mL (≈ 0.244 µM) | 0.098 µg/mL (≈ 0.244 µM) | 0.049 µg/mL (≈ 0.122 µM) | 0.098 µg/mL (≈ 0.244 µM) | 0.781 µg/mL (≈ 1.95 µM) | 0.391 µg/mL (≈ 0.974 µM) | 0.195 µg/mL (≈ 0.486 µM) | 0.781 µg/mL (≈ 1.95 µM) | 0.195 µg/mL (≈ 0.486 µM) | 0.195 µg/mL (≈ 0.486 µM) | 0.098 µg/mL (≈ 0.244 µM) | 0.049 µg/mL (≈ 0.122 µM) | 3.12 µg/mL (≈ 7.78 µM) | 0.098 µg/mL (≈ 0.244 µM) | 0.013 µg/mL (≈ 0.0324 µM) |  | 
2 | CNC1CCC2=C1CN(c1c(F)c(N)c3c(=O)c(C(=O)O)cn(C4CC4)c3c1F)C2 (stereo not shown) [Example 11, 7-[6-methylamino-3-azabicyclo[3,3,0]oct-1(5)ene-3-yl]-5-amino-1-cyclopropyl-6,8-difluoro-1,4-dihydro-4-oxoquinoline-3-carboxylic acid] | 0.195 µg/mL (≈ 0.468 µM) | 0.098 µg/mL (≈ 0.235 µM) | 3.12 µg/mL (≈ 7.5 µM) | 3.12 µg/mL (≈ 7.5 µM) | 0.195 µg/mL (≈ 0.468 µM) | 0.195 µg/mL (≈ 0.468 µM) | 0.195 µg/mL (≈ 0.468 µM) | 0.049 µg/mL (≈ 0.118 µM) | 1.56 µg/mL (≈ 3.75 µM) | 0.391 µg/mL (≈ 0.939 µM) | 0.195 µg/mL (≈ 0.468 µM) | 1.56 µg/mL (≈ 3.75 µM) | 0.007 µg/mL (≈ 0.0168 µM) | 0.049 µg/mL (≈ 0.118 µM) | 0.049 µg/mL (≈ 0.118 µM) | 0.025 µg/mL (≈ 0.06 µM) | 3.12 µg/mL (≈ 7.5 µM) | 0.049 µg/mL (≈ 0.118 µM) | 0.098 µg/mL (≈ 0.235 µM) | 0.049 µg/mL (≈ 0.118 µM) | 
3 | CNC1CCC2=C1CN(c1nc3c(cc1F)c(=O)c(C(=O)O)cn3C1CC1)C2 (stereo not shown) [Example 15, 7-[6-methylamino-3-azabicyclo[3,3,0]oct-1(5)ene-3-yl]-1-cyclopropyl-6-fluoro-1,4-dihydro-4-oxo-1,8-naphthyridine-3-carboxylic acid] | 0.195 µg/mL (≈ 0.507 µM) | 0.195 µg/mL (≈ 0.507 µM) | 3.12 µg/mL (≈ 8.13 µM) | 3.12 µg/mL (≈ 8.13 µM) | 0.195 µg/mL (≈ 0.507 µM) | 0.098 µg/mL (≈ 0.255 µM) | 0.049 µg/mL (≈ 0.127 µM) | 0.098 µg/mL (≈ 0.255 µM) | 1.56 µg/mL (≈ 4.07 µM) | 0.781 µg/mL (≈ 2.03 µM) | 0.195 µg/mL (≈ 0.507 µM) | 1.56 µg/mL (≈ 4.07 µM) | 0.025 µg/mL (≈ 0.065 µM) | 0.391 µg/mL (≈ 1.02 µM) | 0.098 µg/mL (≈ 0.255 µM) | 0.049 µg/mL (≈ 0.127 µM) | 3.12 µg/mL (≈ 8.13 µM) | 0.195 µg/mL (≈ 0.507 µM) | 0.195 µg/mL (≈ 0.507 µM) | 0.049 µg/mL (≈ 0.127 µM) | 
4 | CNC1CCC2=C1CN(c1c(F)cc3c(=O)c(C(=O)O)cn4c3c1OC[C@@H]4C)C2 (stereo partly drawn) [Example 17, 9-fluoro-10-[6-methylamino-3-azabicyclo [3,3,0]oct-1(5)ene-3-yl]-3-(S)-methyl-7-oxo-2,3-dihydro-7H-pyrido[1,2,3-de]-1,4-benzoxazine-6-carboxylic acid] | 0.391 µg/mL (≈ 0.979 µM) | 0.781 µg/mL (≈ 1.96 µM) | 6.25 µg/mL (≈ 15.6 µM) | 12.5 µg/mL (≈ 31.3 µM) | 0.195 µg/mL (≈ 0.488 µM) | 0.391 µg/mL (≈ 0.979 µM) | 0.781 µg/mL (≈ 1.96 µM) | 0.781 µg/mL (≈ 1.96 µM) | 3.12 µg/mL (≈ 7.82 µM) | 3.12 µg/mL (≈ 7.82 µM) | 1.56 µg/mL (≈ 3.91 µM) | 3.12 µg/mL (≈ 7.82 µM) | 0.195 µg/mL (≈ 0.488 µM) | 0.391 µg/mL (≈ 0.979 µM) | 0.391 µg/mL (≈ 0.979 µM) | 0.195 µg/mL (≈ 0.488 µM) | 12.5 µg/mL (≈ 31.3 µM) | 0.781 µg/mL (≈ 1.96 µM) | 0.391 µg/mL (≈ 0.979 µM) | 0.391 µg/mL (≈ 0.979 µM) | 
5 | CC1COc2c(N3CCN(C)CC3)c(F)cc3c(=O)c(C(=O)O)cn1c23 (stereo not shown) [Ofloxacin, reference compound] | 0.781 µg/mL (≈ 2.16 µM) | 0.098 µg/mL (≈ 0.271 µM) | 1.56 µg/mL (≈ 4.33 µM) | 1.56 µg/mL (≈ 4.33 µM) | 1.56 µg/mL (≈ 4.33 µM) | 0.391 µg/mL (≈ 1.08 µM) | 0.098 µg/mL (≈ 0.271 µM) | 0.391 µg/mL (≈ 1.08 µM) | 0.781 µg/mL (≈ 2.16 µM) | 3.12 µg/mL (≈ 8.65 µM) | 0.098 µg/mL (≈ 0.271 µM) | 0.391 µg/mL (≈ 1.08 µM) | 0.025 µg/mL (≈ 0.0692 µM) | 0.391 µg/mL (≈ 1.08 µM) | 0.049 µg/mL (≈ 0.136 µM) | 0.025 µg/mL (≈ 0.0692 µM) | 1.56 µg/mL (≈ 4.33 µM) | 0.391 µg/mL (≈ 1.08 µM) | 0.098 µg/mL (≈ 0.271 µM) | 0.049 µg/mL (≈ 0.136 µM) | ED50 (P. mirabilis; [14]): 2.27 mg/kg; ED50 (P. mirabilis; [15]): 0.53 mg/kg; ED50 (S. aureus 17740; [14]): > 200 mg/kg; ED50 (S. aureus 17740; [15]): 200 mg/kg
